Test results reported in the supplement of paper PMC4862054.

What was measured:
Settings in all cases: incubation time: 72 h
CAL-51 [1] = assay: normalised response (% of control), CellTiter-Glo; higher = more viable cells (100 = DMSO, 0 = benzethonium chloride kill control)
Procedure, shortened: (§1)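 Every value is a normalised signal taken at one concentration of a dilution series. Compound was placed in 384-well plates at 5 concentrations in 10-fold steps over a compound-specific 10,000-fold range, and 20 µl of breast cancer cell suspension was seeded onto it. After 72 h, CellTox Green fluorescence (485/520 nm) was measured first and CellTiter-Glo luminescence second, following 10 min at room temperature. Each plate was scaled to 0.1 % DMSO (100) and a positive kill control (0).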

HCC1937 [2] = assay: as above
Procedure, shortened: as §1

CAL-148 [3] = assay: as above
Procedure, shortened: as §1

BT-474 [4] = assay: as above
Procedure, shortened: as §1

CAL-120 [5] = assay: as above
Procedure, shortened: as §1

MDA-MB-436 [6] = assay: as above
Procedure, shortened: as §1

MDA-MB-453 [7] = assay: as above
Procedure, shortened: as §1

HDQ-P1 [8] = assay: as above
Procedure, shortened: as §1

MFM-223 [9] = assay: as above
Procedure, shortened: as §1

Hs578T [10] = assay: as above
Procedure, shortened: as §1

MDA-MB-468 [11] = assay: as above
Procedure, shortened: as §1

BT-549 [12] = assay: as above
Procedure, shortened: as §1

MCF-10A [13] = assay: as above
Procedure, shortened: as §1

CAL-85-1 [14] = assay: as above
Procedure, shortened: as §1

MDA-MB-231 [15] = assay: as above
Procedure, shortened: as §1

HCC1143 [16] = assay: as above
Procedure, shortened: as §1

SK-BR-3 [17] = assay: as above
Procedure, shortened: as §1

DU-4475 [18] = assay: as above
Procedure, shortened: as §1

HCC1599 [19] = assay: as above
Procedure, shortened: as §1

CAL-51 [20] = assay: normalised response (% of control), CellTox Green; higher = less cell death (100 = DMSO, 0 = benzethonium chloride kill control)
Procedure, shortened: as §1

HCC1937 [21] = assay: as above
Procedure, shortened: as §1

CAL-148 [22] = assay: as above
Procedure, shortened: as §1

BT-474 [23] = assay: as above
Procedure, shortened: as §1

CAL-120 [24] = assay: as above
Procedure, shortened: as §1

MDA-MB-436 [25] = assay: as above
Procedure, shortened: as §1

MDA-MB-453 [26] = assay: as above
Procedure, shortened: as §1

HDQ-P1 [27] = assay: as above
Procedure, shortened: as §1

MFM-223 [28] = assay: as above
Procedure, shortened: as §1

Hs578T [29] = assay: as above
Procedure, shortened: as §1

MDA-MB-468 [30] = assay: as above
Procedure, shortened: as §1

BT-549 [31] = assay: as above
Procedure, shortened: as §1

MCF-10A [32] = assay: as above
Procedure, shortened: as §1

CAL-85-1 [33] = assay: as above
Procedure, shortened: as §1

MDA-MB-231 [34] = assay: as above
Procedure, shortened: as §1

HCC1143 [35] = assay: as above
Procedure, shortened: as §1

DU-4475 [36] = assay: as above
Procedure, shortened: as §1

HCC1599 [37] = assay: as above
Procedure, shortened: as §1

CAL-51 [38] = assay: normalised response (% of control), CellTiter-Glo; higher = more viable cells (100 = DMSO, 0 = benzethonium chloride kill control); remark: listed apart in the source
Experimental: (§2)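 DSRT, 72 h incubation, CellTox Green / CellTiter-Glo readout. Signal is normalised to DMSO and benzethonium chloride controls. Value is the normalised response at dose 3.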

HCC1937 [39] = assay: as above; remark: listed apart in the source
Experimental: as §2

CAL-148 [40] = assay: as above; remark: listed apart in the source
Experimental: as §2

BT-474 [41] = assay: as above; remark: listed apart in the source
Experimental: as §2

CAL-120 [42] = assay: as above; remark: listed apart in the source
Experimental: as §2

MDA-MB-436 [43] = assay: as above; remark: listed apart in the source
Experimental: as §2

MDA-MB-453 [44] = assay: as above; remark: listed apart in the source
Experimental: as §2

HDQ-P1 [45] = assay: as above; remark: listed apart in the source
Experimental: as §2

MFM-223 [46] = assay: as above; remark: listed apart in the source
Experimental: as §2

Hs578T [47] = assay: as above; remark: listed apart in the source
Experimental: as §2

MDA-MB-468 [48] = assay: as above; remark: listed apart in the source
Experimental: as §2

BT-549 [49] = assay: as above; remark: listed apart in the source
Experimental: as §2

MCF-10A [50] = assay: as above; remark: listed apart in the source
Experimental: as §2

CAL-85-1 [51] = assay: as above; remark: listed apart in the source
Experimental: as §2

MDA-MB-231 [52] = assay: as above; remark: listed apart in the source
Experimental: as §2

HCC1143 [53] = assay: as above; remark: listed apart in the source
Experimental: as §2

SK-BR-3 [54] = assay: as above; remark: listed apart in the source
Experimental: as §2

DU-4475 [55] = assay: as above; remark: listed apart in the source
Experimental: as §2

HCC1599 [56] = assay: as above; remark: listed apart in the source
Experimental: as §2

Row | Structure (SMILES) | normalised response (CAL-51 [1]) [%] | normalised response (HCC1937 [2]) [%] | normalised response (CAL-148 [3]) [%] | normalised response (BT-474 [4]) [%] | normalised response (CAL-120 [5]) [%] | normalised response (CAL-51 [20]) [%] | normalised response (CAL-148 [22]) [%] | normalised response (BT-474 [23]) [%] | normalised response (CAL-120 [24]) [%] | normalised response (MDA-MB-436 [25]) [%] | normalised response (MDA-MB-453 [26]) [%] | normalised response (HDQ-P1 [27]) [%] | normalised response (MFM-223 [28]) [%] | normalised response (BT-549 [31]) [%] | normalised response (MCF-10A [32]) [%] | normalised response (CAL-85-1 [33]) [%] | normalised response (MDA-MB-231 [34]) [%] | normalised response (HCC1143 [35]) [%] | normalised response (DU-4475 [36]) [%] | normalised response (HCC1599 [37]) [%] | also measured
1 | CC(=O)N(O)CCCCCNC(=O)CCC(=O)N(O)CCCCCNC(=O)CCC(=O)N(O)CCCCCN [Deferoxamine] (1000 nM) | 88.7 | 76.8 | 59.6 | 90.9 | 96.1 | 91.1 | 2.01 | 96.8 | 96.8 | 73.7 | 100 | 106 | 70.8 | 102 | 79.7 | 110 | 96.7 | 82.2 | 97.5 | 96.7 | normalised response (MDA-MB-436 [6]): 87.4%; normalised response (MDA-MB-453 [7]): 84.2%; normalised response (HDQ-P1 [8]): 93.6%; normalised response (MFM-223 [9]): 89.5%; normalised response (Hs578T [10]): 96.8%; normalised response (MDA-MB-468 [11]): 63.3%; normalised response (BT-549 [12]): 72.7%; normalised response (MCF-10A [13]): 97.7%; normalised response (CAL-85-1 [14]): 102%; normalised response (MDA-MB-231 [15]): 86.8%; normalised response (HCC1143 [16]): 79.5%; normalised response (SK-BR-3 [17]): 84.2%; normalised response (DU-4475 [18]): 85.8%; normalised response (HCC1599 [19]): 98.2%; normalised response (HCC1937 [21]): -39.7%; normalised response (Hs578T [29]): 97.3%; normalised response (MDA-MB-468 [30]): 143%
2 | CC(=O)c1c(C)c2cnc(Nc3ccc(N4CCNCC4)cn3)nc2n(C2CCCC2)c1=O [Palbociclib] (1000 nM) | 103 | 94.8 | 86.2 | 78.1 | 84.6 | 126 | 89.8 | 95.2 | 102 | 100 | 101 | 103 | 98.4 | 109 | 105 | 114 | 109 | 70.3 | 99 | 98.1 | normalised response (MDA-MB-436 [6]): 96.6%; normalised response (MDA-MB-453 [7]): 102%; normalised response (HDQ-P1 [8]): 105%; normalised response (MFM-223 [9]): 72.6%; normalised response (Hs578T [10]): 93.3%; normalised response (MDA-MB-468 [11]): 86.7%; normalised response (BT-549 [12]): 102%; normalised response (MCF-10A [13]): 82.5%; normalised response (CAL-85-1 [14]): 104%; normalised response (MDA-MB-231 [15]): 84%; normalised response (HCC1143 [16]): 80.3%; normalised response (SK-BR-3 [17]): 75.9%; normalised response (DU-4475 [18]): 94.4%; normalised response (HCC1599 [19]): 91.6%; normalised response (HCC1937 [21]): 102%; normalised response (Hs578T [29]): 108%; normalised response (MDA-MB-468 [30]): 167%
3 | Cc1ccc([N+](=O)[O-])cc1S(=O)(=O)N(C)/N=C/c1cnc2ccc(Br)cn12 [PIK-75] (1000 nM) | 11.5 | 21.6 | 48.8 | 9.85 | 28.5 | 70.6 | 86.7 | 6.93 | 86.8 | 102 | 61.6 | 38.4 | 44.6 | 35.8 | -12.4 | -12.6 | -17.8 | 56.9 | 79 | 62.1 | normalised response (MDA-MB-436 [6]): 15.9%; normalised response (MDA-MB-453 [7]): 4.17%; normalised response (HDQ-P1 [8]): 16.7%; normalised response (MFM-223 [9]): 7.31%; normalised response (Hs578T [10]): 3.83%; normalised response (MDA-MB-468 [11]): 2.19%; normalised response (BT-549 [12]): 2.37%; normalised response (MCF-10A [13]): 1.81%; normalised response (CAL-85-1 [14]): 1.64%; normalised response (MDA-MB-231 [15]): 1.8%; normalised response (HCC1143 [16]): 13.3%; normalised response (SK-BR-3 [17]): 0.25%; normalised response (DU-4475 [18]): 4.76%; normalised response (HCC1599 [19]): 6.38%; normalised response (HCC1937 [21]): 99.3%; normalised response (Hs578T [29]): 42.7%; normalised response (MDA-MB-468 [30]): -15.6%
4 | C[C@]1(O)C[C@@H](c2nc(-c3ccc4ccc(-c5ccccc5)nc4c3)c3c(N)nccn32)C1 [Linsitinib] (100 nM) | – | – | – | – | – | 95.5 | 76.6 | 99.3 | 97.2 | 52.9 | 99.3 | 93.2 | 99.8 | 102 | 92.7 | 90.8 | 83.4 | 73 | 96.2 | 93.8 | normalised response (CAL-51 [38]): 105%; normalised response (HCC1937 [39]): 107%; normalised response (CAL-148 [40]): 90%; normalised response (BT-474 [41]): 91.3%; normalised response (CAL-120 [42]): 90.4%; normalised response (MDA-MB-436 [43]): 88.9%; normalised response (MDA-MB-453 [44]): 90.7%; normalised response (HDQ-P1 [45]): 99.8%; normalised response (MFM-223 [46]): 91.4%; normalised response (Hs578T [47]): 106%; normalised response (MDA-MB-468 [48]): 85.6%; normalised response (BT-549 [49]): 100%; normalised response (MCF-10A [50]): 72.8%; normalised response (CAL-85-1 [51]): 89.7%; normalised response (MDA-MB-231 [52]): 93.9%; normalised response (HCC1143 [53]): 98.1%; normalised response (SK-BR-3 [54]): 84.8%; normalised response (DU-4475 [55]): 97.8%; normalised response (HCC1599 [56]): 107%
5 | COc1cc(F)c(F)c(Nc2ccc(I)cc2F)c1NS(=O)(=O)C1(C[C@H](O)CO)CC1 [Refametinib] (1000 nM) | 99.3 | 79.4 | 89.2 | 62.4 | 66.1 | 101 | 99.3 | 99.7 | 86.8 | 97.5 | 106 | 82.9 | 99.6 | 115 | 92.6 | 46.6 | 39.2 | 70.5 | 57.4 | 95.8 | normalised response (MDA-MB-436 [6]): 78.4%; normalised response (MDA-MB-453 [7]): 96.3%; normalised response (HDQ-P1 [8]): 54.5%; normalised response (MFM-223 [9]): 75.9%; normalised response (Hs578T [10]): 80.1%; normalised response (MDA-MB-468 [11]): 72.7%; normalised response (BT-549 [12]): 95.7%; normalised response (MCF-10A [13]): 28.3%; normalised response (CAL-85-1 [14]): 52.2%; normalised response (MDA-MB-231 [15]): 59.4%; normalised response (HCC1143 [16]): 77.2%; normalised response (SK-BR-3 [17]): 82.4%; normalised response (DU-4475 [18]): 0.17%; normalised response (HCC1599 [19]): 116%; normalised response (HCC1937 [21]): 113%; normalised response (Hs578T [29]): 109%; normalised response (MDA-MB-468 [30]): 120%
